{"source": "patent US20060029576A1", "about": "“Biological control of pythium disease in crops” (HER MAJESTY THE QUEEN IN RIGHT OF CANADA, THE MINISTER OF …, priority 2004, published 2006)", "assay_type_in_all_cases": "in vivo", "key": {"[1]": {"test_system": "Pythium spp. (predominantly Pythium sp. ‘group G’)", "assay": "Seed treatment of field pea cv. Trapper, damping-off field experiment 2004", "details": "for Plant Height (cm): 6-node stage (4 weeks after planting)", "protocol": "(§1) The strains of Rhizobium leguminosarum bv. viceae used for the study were 99A1, R12, R20, and R21. Strain 99A1 was originated from the commercial pea inoculant produced by Agrium, Inc. Calgary, Alberta. Bacterial cultures were grown on tryptone-yeast agar (TYA) (Beringer, 1974) in Petri dishes for 48 h at room temperature (20±2° C.). The resulting colonies were suspended in 5 ml per dish of 1% methyl cellulose (Sigma-Aldrich, Milwaukee, Wis.) in sterile distilled water, and scraped gently with a spatula to obtain bacterial slurries. Seeds of field pea cv. Trapper and lentil cv. Laird were soaked for 20 minutes in the slurries, spread on a metallic mesh sheet with paper towel underneath to absorb the excess slurry, and air-dried overnight under a fume hood. Enumeration of bacteria coated onto seeds was done by placing 5 seeds in a test tube with 5 ml of sterile distilled water, vortexing for 30 sec, and plating serial dilutions on TYA, 0.1 ml per 9-cm dish. After incubation at room temperature for 3 days, bacterial colonies developed in each dish were counted. There were two replicates for each treatment.\n(§2) Field experiments were conducted at the Agriculture and Agri-Food Canada Research Centre near Lethbridge, Alberta, Canada, in a field naturally infested with Pythium spp. (predominantly Pythium sp. ‘group G’). For the pea experiment, seeds were planted using a plot seeder on 28 May 2004, in 4-row plots with a row length of 5 m, a row spacing of 22.5 cm, and a plant spacing of 5 cm (i.e. 20 seeds/m). Untreated seeds and fungicide-treated seeds (Thiram™ at the rate of 30 g/25 kg seed) (Gustafson; Calgary, Alberta, Canada) were used as controls. Treatments were arranged in a randomized block design with 6 replicates. For the lentil experiment, seeds were planted on the same date and using the same parameters as for field pea.\n(§3) Seedling emergence for each plot was determined. The number of healthy seedlings and the number of wilted seedlings were counted in the middle 3 m of each row, and the percent loss due to pre-emergent and post-emergent damping-off were calculated, as well as the final stand establishment. The causal agent of seedling death was determined by collecting 10 non-emerged seedlings and all of the wilted seedlings from each plot, washing in running water, surface sterilizing in 70% ethanol for 90 sec, incubating on potato dextrose agar (PDA) in Petri dishes at room temperature for 7 days, and examining the organisms derived from each sample. Results of reisolation of diseased seedlings were used to calculate the incidence of damping-off due to Pythium spp. for each plot.\n(§4) Seedling height for each plot was determined (6-node stage for peas; 5-node stage for lentils). For each row, ten seedlings were randomly selected and the distance from the first node to the terminal branch of each seedling was measured.\n(§5) Differences between treatments for incidence of damping-off, seedling emergence and seedling height data were analyzed for statistical significance using analysis of variance (ANOVA) and means of treatments for each set of data were separated using Duncan's multiple range test at the P=0.05 level. All statistical analyses were done using SAS Statistical Analysis Software, Version 8.2 (SAS Institute Inc., Cary, N.C. 2001)."}, "[2]": {"test_system": "Pythium spp. (predominantly Pythium sp. ‘group G’)", "assay": "Seed treatment of lentil cv. Laird, damping-off field experiment 2004", "protocol": "as §1, §2, §3, §4, §5"}, "[3]": {"test_system": "Pythium spp.", "assay": "Seed treatment of sugar beet, field naturally infested with Pythium spp. (2001 field experiments)", "details": "4 weeks after planting", "protocol": "(§6) The selected strains of R. leguminosarum bv. viceae (R12, R20, and R21) effective against Pythium damping-off of sugar beet in indoor experiments were tested for control of damping-off of sugar beet and field pea in fields naturally infested with Pythium spp. at the Lethbridge Research Centre, Alberta. […] (Bardin et al. 2003). The seeds were coated with the bacterial slurry as described previously using 2.4 and 9.5 mL bacterial slurry/100 seeds of sugar beet and field pea, respectively. The seeds were dried overnight at room temperature on a metallic mesh, which was placed on a paper towel to absorb the excess slurry. The number of bacteria coated onto the seeds was similar for the four bacterial strains, ranging from 1.4×10^6±0.2×10^6 to 2.3×10^7±0.2×10^7 cfu/seed for sugar beets and 3.0×10^7±0.3×10^7 to 1.2×10^8±0.4×10^8 cfu/seed for field peas. The coated seeds were then stored at 4° C. until planting. Bacterial counts on the seeds were determined by vortexing five coated seeds in 5 mL of distilled sterile water for 30 seconds, and by plating serial dilutions on TY agar medium in Petri dishes for Rhizobium strains and on PDA in Petri dishes for P. fluorescens. […] Seedling emergence was recorded 4 weeks after planting and was compared with the uninoculated and fungicide controls. […]"}, "[4]": {"test_system": "Pythium spp.", "assay": "Seed treatment of field pea, field naturally infested with Pythium spp. (2001 field experiments)", "details": "4 weeks after planting", "protocol": "as §6"}}, "data": [{"smiles": "CN(C)C(=S)SSC(=S)N(C)C", "note": "[Thiram]", "values": [{"measurement": "Plant Height (cm)", "setting": "[1]; control 11.1", "result": 14.6, "unit": "cm"}, {"measurement": "Plant Height (cm)", "setting": "[1]; control 11.1, listed as Fungicide (Thiram)", "result": 14.6, "unit": "c cm"}, {"measurement": "Damping-off (%) Post-emergent", "setting": "[1]; control 0.2", "result": 0.6, "unit": "%"}, {"measurement": "Final Stand (%)", "setting": "[1]; control 37.8", "result": 79.1, "unit": "c %"}, {"measurement": "Damping-off (%) by Pythium", "setting": "[1]; control 55.4, listed as Fungicide (Thiram)", "result": 16.7, "unit": "c %"}, {"measurement": "Damping-off (%) by Pythium", "setting": "[1]; control 55.4, listed as fungicide", "result": 16.7, "unit": "%"}, {"measurement": "Damping-off (%) Pre-emergent", "setting": "[1]; control 62.0", "result": 20.3, "unit": "%"}, {"measurement": "Damping-off (%) Pre-emergent", "setting": "[1]; control 62.0, listed as Fungicide (Thiram)", "result": 20.3, "unit": "c %"}, {"measurement": "Plant Height (cm)", "setting": "[2]; 5-node stage (4 weeks after planting), control 11.2", "result": 11.4, "unit": "a cm"}, {"measurement": "Damping-off (%) Post-emergent", "setting": "[2]; control 2.7", "result": 2.6, "unit": "%"}, {"measurement": "Damping-off (%) by Pythium", "setting": "[2]; control 35.3, listed as Fungicide (Thiram)", "result": 22.8, "unit": "d %"}, {"measurement": "Damping-off (%) by Pythium", "setting": "[2]; control 35.3, listed as fungicide", "result": 22.8, "unit": "%"}, {"measurement": "Damping-off (%) Pre-emergent", "setting": "[2]; control 46.3", "result": 34.2, "unit": "%"}, {"measurement": "Damping-off (%) Pre-emergent", "setting": "[2]; control 46.3, listed as Fungicide (Thiram)", "result": 34.2, "unit": "c %"}, {"measurement": "Final Stand (%)", "setting": "[2]; control 51.0", "result": 63.2, "unit": "d %"}, {"measurement": "Emergence (%) Sugar beet (Beta vulgaris) August 2001", "setting": "[3]; untreated control 6.5", "result": 27.0, "unit": "a %"}, {"measurement": "Emergence (%) Sugar beet (Beta vulgaris) May 2001", "setting": "[3]; untreated control 10.0", "result": 28.6, "unit": "a %"}, {"measurement": "Emergence (%) Pea (Pisum sativum) August 2001", "setting": "[4]; untreated control 12.8", "result": 48.3, "unit": "a %"}, {"measurement": "Emergence (%) Pea (Pisum sativum) May 2001", "setting": "[4]; untreated control 41.4", "result": 71.4, "unit": "a %"}]}]}
